Test results: patent US20260272907A1, “Therapeutic Tyrosine Kinase Inhibitors for Multiple Sclerosis” (Principia Biopharma Inc., priority 2022, published 2026)

Legend:
[1] = test system: patients with relapsing multiple sclerosis; experiment: Long-term safety extension: number of new T1 non-enhancing (hypointense) lesions (MRI); assay type: in vivo, human
Procedure: In the current open-label extension Part B, all patients receive 60 mg/day. MRI outcomes include numbers of new Gd-enhancing and new/enlarging T2 lesions, T2 lesion volume change from baseline, slowly evolving lesions (SEL), and paramagnetic rim lesions (PRL).
The Week 0 value is from the last MRI obtained in the dose-finding study if performed within 6 weeks prior to Day 1 of the long-term safety study For some patients the Week 0 value began after a gap period ranging from 0-21 weeks. For patients where the gap period was 0 weeks, the Week 0 value began immediately after the completion of Week 16 of the dose-finding study. For patients where the gap period was greater than 6 weeks a new MRI was obtained prior to Day 1 of the long-term safety study.
If from Week 16 of the dose-finding study (Cohort 2), it is also included in Week 12. If from Week 16 of the dose-finding study (Cohort 1), it is after 4 weeks placebo run out.

CYP2C8 = target: T1, CYP2C8 (Homo sapiens, UniProt P10632); experiment: Preclinical drug metabolism studies: CYP2C8; assay type: in vitro ADME
T1 sequence (P10632 1-490): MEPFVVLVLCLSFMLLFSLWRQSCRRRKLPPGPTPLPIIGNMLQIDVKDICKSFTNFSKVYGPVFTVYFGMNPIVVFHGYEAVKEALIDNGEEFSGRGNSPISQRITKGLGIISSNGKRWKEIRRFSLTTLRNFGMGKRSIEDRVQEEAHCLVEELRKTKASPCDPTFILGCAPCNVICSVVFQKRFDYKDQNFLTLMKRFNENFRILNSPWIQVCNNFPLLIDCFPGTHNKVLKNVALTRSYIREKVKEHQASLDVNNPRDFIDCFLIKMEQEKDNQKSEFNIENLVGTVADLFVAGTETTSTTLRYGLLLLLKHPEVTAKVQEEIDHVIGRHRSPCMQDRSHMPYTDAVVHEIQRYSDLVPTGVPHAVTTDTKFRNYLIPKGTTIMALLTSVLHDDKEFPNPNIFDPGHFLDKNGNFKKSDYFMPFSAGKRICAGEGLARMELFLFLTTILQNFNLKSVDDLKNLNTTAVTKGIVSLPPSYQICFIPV
Excerpt: See Table 12 for the list of drugs not to be used.

patients with RMS = experiment: Ongoing tolebrutinib Phase 3 trials: drug-induced liver injury; assay type: in vivo, human; settings: ongoing Phase 3 trials
Excerpt: Drug-induced liver injury has been identified in the ongoing tolebrutinib Phase 3 trials. The reported events occurred between months 2 to 3 after the start of tolebrutinib administration, and the elevation of liver enzymes appears reversible after tolebrutinib discontinuation. Thus, there is a need to mitigate the risk of hepatic injury and provide safe treatment for patients with RMS.

CD19+ B-cell = experiment: Phase 1: absolute CD19+ B-cell counts

Q: With `C=CC(=O)N1CCC[C@@H](n2c(=O)n(-c3ccc(Oc4ccccc4)cc3)c3c(N)nccc32)C1` [the BTK inhibitor, (R)-1-(1-acryloylpiperidin-3-yl)-4-amino-3-(4-phenoxyphenyl)-1H-imidazo[4,5-c]pyridin-2(3H)-one] as the compound, how does the “Number of new T1 non-enhancing (hypointense) lesions, Mean (SD)” value (shortened to “Number of new T1 non-enhancing … (SD)”) ([1]; 5/60 mg, Week 0) read?
A: The value was 0.23 (0.43).

Q: What about the “Number of new T1 non-enhancing (hypointense) lesions, Median” value (from here on “Number of new T1 non-enhancing … Median”) ([1]; 5/60 mg, Week 0) of the same compound?
A: The value was 0.00.

Q: And the “Number of new T1 non-enhancing … (SD)” value ([1]; 5/60 mg, Week 12)?
A: The value was 0.19 (0.60).

Q: What about the “Number of new T1 non-enhancing … Median” value ([1]; 5/60 mg, Week 12) of the same compound?
A: Its value is 0.00.

Q: What about the “Number of new T1 non-enhancing … (SD)” value ([1]; 15/60 mg, Week 0) of the same compound?
A: Its value is 0.61 (1.45).

Q: And the “Number of new T1 non-enhancing … Median” value ([1]; 15/60 mg, Week 0)?
A: Its value is 0.00.

Q: And the “Number of new T1 non-enhancing … (SD)” value ([1]; 15/60 mg, Week 12)?
A: The value was 0.26 (0.73).

Q: What about the “Number of new T1 non-enhancing … Median” value ([1]; 15/60 mg, Week 12) of the same compound?
A: The value was 0.00.

Q: What about the “Number of new T1 non-enhancing … (SD)” value ([1]; 30/60 mg, Week 0) of the same compound?
A: Its value is 0.31 (1.09).

Q: What about the “Number of new T1 non-enhancing … Median” value ([1]; 30/60 mg, Week 0) of the same compound?
A: Its value is 0.00.

Q: What about the “Number of new T1 non-enhancing … (SD)” value ([1]; 30/60 mg, Week 12) of the same compound?
A: The value was 0.09 (0.39).

Q: And the “Number of new T1 non-enhancing … Median” value ([1]; 30/60 mg, Week 12)?
A: The value was 0.00.

Q: And the “Number of new T1 non-enhancing … (SD)” value ([1]; 60/60 mg, Week 0)?
A: The value was 0.06 (0.36).

Q: And the “Number of new T1 non-enhancing … Median” value ([1]; 60/60 mg, Week 0)?
A: The value was 0.00.

Q: And the “Number of new T1 non-enhancing … (SD)” value ([1]; 60/60 mg, Week 12)?
A: Its value is 0.03 (0.18).

Q: What about the “Number of new T1 non-enhancing … Median” value ([1]; 60/60 mg, Week 12) of the same compound?
A: Its value is 0.00.

Q: And the “Number of new T1 non-enhancing … (SD)” value ([1]; All (N = 125), Week 0)?
A: The value was 0.30 (0.96).

Q: And the “Number of new T1 non-enhancing … Median” value ([1]; All (N = 125), Week 0)?
A: Its value is 0.00.

Q: And the “Number of new T1 non-enhancing … (SD)” value ([1]; All (N = 125), Week 12)?
A: The value was 0.14 (0.52).

Q: What about the “Number of new T1 non-enhancing … Median” value ([1]; All (N = 125), Week 12) of the same compound?
A: The value was 0.00.

Q: And the “Substrate of CYP2C8 isoenzyme” value (CYP2C8)?
A: Its value is “substrate”.

Q: And the “Course of the elevation of liver enzymes after discontinuation” value (patients with RMS)?
A: Its value is “reversible”.

Q: And the Drug-induced liver injury (patients with RMS)?
A: Its Drug-induced liver injury is “identified”.

Q: What about the “Dose at which the dose-response for the increase in circulating B-cells is maximal” value (CD19+ B-cell) of the same compound?
A: The value was “approximately 30 mg once daily”.

Q: What about the “Dose-dependent increase of absolute CD19+ B-cell counts relative to baseline” value (CD19+ B-cell; observed maximally at Day 4) of the same compound?
A: The value was “up to 80%”.
